In US7771761B2, “Cheese with calcium lactate crystal inhibitor” (Regents of The University of Minnesota, priority 2005, dated 2010):
Counter-ions that a name gives are not always drawn. Like-named read-outs stand apart in the source and are kept apart here.

Key:
[1] = Solubility model Example 4: visual inspection for crystals on sand paper in calcium lactate solution; format: physicochemical; details: 1.5% additive in 5.31 g calcium lactate/100 g solution, pH 6.6, 14 days at 7° C.
Experimental: (§1) Demineralized water (60° C.) was then added to the flask to obtain a final weight of 100 g and the flask was stirred to dissolve the calcium lactate powder. Subsequently a piece of 1.5×3 cm sand paper was added to the flask to provide a nucleation site for calcium lactate crystal formation and the flask was sealed with a rubber stopper.
(§2) After preparation a sample of each solution was collected.
(§3) Subsequently all solutions were stored at 7° C. for 14 days. After 14 days the flasks were visually inspected for the presence of crystals on the sand paper and the solutions were filtered at 7° C. through filter paper (Whatman 4; Whatman International Ltd., Maidstone, England).

[2] = Solubility model Example 3: filtrate analysis of calcium lactate solutions with sodium gluconate; format: physicochemical; details: 48 hours at about 40° F., cold filtered
Source text: A test was run to determine the ability of ionic gluconate provided by sodium gluconate in an aqueous solution to bind with lactate over time, to thereby model the believed primary phenomenon resulting in reduced formation of calcium lactate crystal. In each sample of the model, 14.1 g of calcium lactate pentahydrate (CH3CHOHCOO)2 Ca.5H2O) was used to provide 10 g of calcium lactate (1.83 g calcium ion, 8.17 g lactate ion). Different amounts of sodium gluconate (NaC6H11O7), amounts shown in Table I below) were combined with the calcium lactate pentahydrate and diluted to 100 ml with water. The samples were prepared at room temperature and each mixed well. The samples were then refrigerated at about 40° F. for 48 hours, with each sample being mixed several times during the 48 hour holding period. After the holding period, the samples were cold filtered (40° F.) and the filtrate analyzed for lactate, gluconate and calcium concentrations.

[3] = Solubility model Example 4: lactate analysis by HPLC; details: for Lactate analysis After Storage: 1.5% additive, 14 days at 7° C., filtered supernatant
Experimental: as §1, §2, §3
(§4) The supernatant and the sample collected prior to storage were analyzed for lactic acid using High Performance Liquid Chromatography (HPLC) and for calcium content by Atomic Absorption Spectroscopy (AAS), providing the results reported below in Tables II and III.

[4] = Solubility model Example 4: calcium analysis by Atomic Absorption Spectroscopy; details: for Calcium analysis After Storage: 1.5% additive, 14 days at 7° C., filtered supernatant
Experimental: as §1, §2, §3, §4

Structure (SMILES) | presence of crystals on the sand paper (visual inspection) [1] | FILTRATE RESULTS C6H11O7(%) ([2]; 5 g NaC6H11O7 added to 14.1 g calcium lactate pentahydrate in 100 ml) | FILTRATE RESULTS C6H11O7(%) ([2]; 10 g NaC6H11O7 added to 14.1 g calcium lactate pentahydrate in 100 ml) | FILTRATE RESULTS C6H11O7(%) ([2]; 15 g NaC6H11O7 added to 14.1 g calcium lactate pentahydrate in 100 ml) | FILTRATE RESULTS C6H11O7(%) ([2]; 20 g NaC6H11O7 added to 14.1 g calcium lactate pentahydrate in 100 ml) | FILTRATE RESULTS C6H11O7(%) ([2]; 25 g NaC6H11O7 added to 14.1 g calcium lactate pentahydrate in 100 ml) | Lactate analysis After Storage [3] | Calcium analysis After Storage [4] | Lactate analysis Initial Concentration ([3]; 0 days, 1.5 %, pH 6.6) | Calcium analysis Initial Concentration ([4]; 0 days, 1.5 %, pH 6.6) | Lactate analysis Initial Concentration [3] | Calcium analysis Initial Concentration [4]
O=C([O-])[C@H](O)[C@@H](O)[C@H](O)[C@H](O)CO.[Na+] [Sodium gluconate, sodium gluconate] | no crystals were visually observed | 2.97% | 7.55% | 11.15% | 14.21% | 16.61% | 4.41% | 1.08% |  |  |  | 
O=C(O)CC(O)C(=O)O (stereo not drawn) [Sodium malate, malic acid disodium salt] | no crystals were visually observed |  |  |  |  |  | 4.47% | 1.06% | 4.43% | 1.07% |  | 
O=C(O)[C@H](O)[C@@H](O)[C@H](O[C@@H]1O[C@H](CO)[C@H](O)[C@H](O)[C@H]1O)[C@H](O)CO [Sodium lactobionate, lactobionic acid] | no crystals were visually observed |  |  |  |  |  | 4.33% | 1.04% |  |  | 4.33% | 1.05%
